# Reference: patent US20200253996A1, “TCTP INHIBITING AGENTS FOR THE TREATMENT OF PROLIFERATIVE DISEASES, INFECTIOUS DISEASES, ALLERGIES, INFLAMMATIONS AND/OR ASTHMA” (UNIVERSITE PARIS-SUD, priority 2017, published 2020)
# Where two headings read alike, the source gives them in different places.
# Key:
# [1] = target: T1, TCTP (Homo sapiens, UniProt P13693); experiment: Interaction with TCTP by surface plasmon resonance (SPR), Biacore T200; format: binding; details: for Kd: TCTP bonded to chip, Biacore T200
# T1 sequence (P13693 1-172): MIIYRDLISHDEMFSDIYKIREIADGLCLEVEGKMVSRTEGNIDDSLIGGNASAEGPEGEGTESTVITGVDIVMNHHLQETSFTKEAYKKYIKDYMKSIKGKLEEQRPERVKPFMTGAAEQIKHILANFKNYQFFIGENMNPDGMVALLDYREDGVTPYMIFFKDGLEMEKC
# Description: The interaction of the synthesized molecules with TCTP was evaluated by the surface plasmon resonance (SPR) technique using the Biacore T200 apparatus.
# A beam of polarized monochromatic light illuminates a glass interface between two media with different refractive indices, since the angle of incidence is greater than the limiting angle, all the light is reflected, a phenomenon known as total internal reflection. There is then no refraction but an electromagnetic component of the light, the evanescent wave propagates over a distance equivalent to its own wavelength, perpendicular to the interface. At the level of the gold leaf located at the interface between the two media, a resonance between the gold plasmons and the evanescent wave is observed, which results in a loss of light energy in the beam reflected at a precise angle called the resonance angle. This angle is sensitive to the refractive index of the medium wherein the evanescent wave propagates.
# A continuous measurement of the variations in the angle of refraction is carried out using a micro-refractometer producing a sensorgram that allows the fixation of the molecules injected into the microfluidic cell to be monitored in real time. The resonance signal is expressed in resonance units (RU) and reports what is present at a given time in the microfluidic cell.
# Thus, TCTP is bonded to a chip consisting of a layer of dextran on a gold foil, which in turn is placed on a glass plate. This layer is sandwiched between a microfluidic cell and a prism.
# The synthesized compounds are passed through the microfluidic cell and their interaction is evaluated through the received SPR signal (Table 1).
# [2] = tested on: human cancer line HCT116 (colorectal carcinoma); experiment: Cytotoxic activity on HCT116, 72 hours incubation; format: cell-based; details: for IC50: Homo sapiens, HCT-116, HCT116, 72 hours incubation, concentration inducing 50% cell death; for % (viability) at 10 μM: HCT116, 10 μM; for antiproliferative activity profile (in words): compared with sertraline; for % (viability) at 1 μM: HCT116, 1 μM
# Description: The cytotoxic activity of the prepared compounds was evaluated on the human cancer line HCT116 (colorectal carcinoma). The selected line was incubated at 37° C. in the presence of one of the prepared compounds added to the culture medium at various concentrations. The inhibitory concentration inducing 50% cell death (IC50) was determined after 72 hours incubation for each compound (Table 1).
# [3] = tested on: p53 protein; experiment: Overexpression of p53 protein, Western blot; format: cell-based; details: 10 μM
# Description: The compound AC014 is capable of inducing overexpression of p53 (FIG. 1).
# The Western blot was carried out according to the protocol described in the following article: Amson R, Pece S, Lespagnol A, Vyas R, Mazzarol G, Tosoni D, Colaluca I, Viale G, Rodrigues-Ferreira S, Wynendaele J, Chaloin O, Hoebeke J, Marine J C, Di Fiore P P, Telerman A. Nat Med. 2011 Dec. 11; 18(1):91-9.
# The following antibodies were used in the Western blot assay: anti-TCTP antibodies were generated against the whole human-derived TCTP. These polyclonal antibodies were purified by affinity column affinity coupled to TCTP (Agro-Bio). Anti-P53 1C12 mouse antibody (Cell Signaling Technology) was used at a dilution of 1/1000.
# Secondary antibodies (antirabbit and antimouse) conjugated to HRP were used at a dilution of 1/5000 to visualize the signals by Western blots.
# [4] = tested on: human HCT116 cells; experiment: Inhibition of cell growth, CellTiter Glo assay; details: for GI50 / CC50: Homo sapiens
# Description: The viability and proliferation of human HCT116 cells is measured using the “CellTiter Glo®” assay (Promega), which is a luminescent measure of the number of living cells. Sertraline and AC070 were tested at 10 concentrations and results are expressed as GI50, TGI, LC50 and IC50 relative to control cells (DMSO).
# The CellTiter-Glo® assay is a homogeneous method for determining the number of viable cells in culture based on a quantification of the ATP present, an indicator of metabolically active cells. The homogeneous test procedure involves the addition of a single reagent (the CellTiter-Glo® reagent) directly to the cultured cells in serum-enriched medium.
# The results of the test are reported in the following Tables 2 and 3 (Table 2: sertraline and Table 3: AC070): […]
Compound,Kd [1] [µM],IC50 [2] [µM],% (viability) at 10 μM [2],affinity for TCTP (in words) [1],antiproliferative activity profile (in words) [2],further results
"COc1ccc2c(c1)CCCC2c1cccc(Cl)c1 (centres unmarked) [AC101, 1-(3-chlorophenyl)-6-methoxy-1,2,3,4-tetrahydronaphthalene]",145 ± 34,7 ± 0.4,,,,
"CC(=O)N[C@@H]1CC[C@H](c2ccc(C(=O)NC3OC(COC(C)=O)C(OC(C)=O)C(OC(C)=O)C3OC(C)=O)cc2)c2ccccc21 (stereo in doubt) [VM060-cis, Cis-(2R,3R,4S,5R,6R)-2-(4-acetamido-1,2,3,4-tetrahydronaphthalen-1-yl)benzamido)-6-(acetoxy-methyl)tetrahydro-2H-pyran-3,4,5-triyl triacetate]",26 ± 8,,10 μM: 15% (viability),,,
"Ic1cccc(C2CCCc3ccccc32)c1 (centres unmarked) [AC041, 1-(3-iodophenyl)-1,2,3,4-tetrahydronaphthalene]",59 ± 30,9 ± 1.2,,excellent affinity,identical to that of sertraline,
"CC(=O)NC1CCC(c2cc(SC3OC(COC(C)=O)C(OC(C)=O)C(OC(C)=O)C3OC(C)=O)c(C(=O)Nc3cccc4cccnc34)c(S[C@@H]3OC(COC(C)=O)[C@@H](OC(C)=O)C(OC(C)=O)C3OC(C)=O)c2)c2ccccc21 (stereo in doubt) [AC249-cis, Cis-(2S,3R,4S,5R,6R)-2-((5-((4S)-4-acetamido-1,2,3,4-tetrahydronaphthalen-1-yl)-2-(quinolin-8-ylcarbamoyl)-3-(((2R,3S,4R,5S,6S)-3,4,5-triacetoxy-6-(acetoxymethyl)tetrahydro-2H-pyran-2-yl)thio)phenyl)thio)-6-(acetoxymethyl)tetrahydro-2H-pyran-3,4,5-triyl triacetate]",8 ± 2,,,,,
"CC(=O)NC1CCC(c2ccc(Br)cc2)c2ccccc21 (mixture of isomers) [AC088, N-(4-(4-bromophenyl)-1,2,3,4-tetrahydronaphthalen-1-yl)acetamide]",135 ± 37,,10 μM: 33% (viability),,,
"c1ccc2c(c1)CCCC2c1ccc2ccccc2c1 (centres unmarked) [AC014, 1,2,3,4-tetrahydro-1,2′-binaphthalene]",7 ± 3,8 ± 1,,excellent affinity,identical to that of sertraline,expression of the p53 protein [3]: induces; induction of p53 compared to sertraline [3]: more pronounced
"CC(=O)NC1CCC(c2cccc(I)c2)c2ccccc21 (mixture of isomers) [AC087, N-(4-(3-iodophenyl)-1,2,3,4-tetrahydronaphthalen-1-yl)acetamide]",16 ± 11,,10 μM: 33% (viability),excellent affinity,identical to that of sertraline,
"c1ccc2c(c1)CCCC2c1ccc2[nH]ccc2c1 (centres unmarked) [AC082, 5-(1,2,3,4-tetrahydronaphthalen-1-yl)-1H-indole]",123 ± 33,,33%,,,% (viability) at 1 μM [2]: 9 ± 1%
"COc1ccc2c(c1)CCCC2c1ccc(Cl)c(Cl)c1 (centres unmarked) [AC095, 1-(3,4-dichlorophenyl)-6-methoxy-1,2,3,4-tetrahydronaphthalene]",150,,10 μM: 40% (viability),,,
"Clc1ccc(C2CCCc3ccccc32)cc1Cl (centres unmarked) [AC096, 1-(3,4-dichlorophenyl)-1,2,3,4-tetrahydronaphthalene]",14 ± 7,,,excellent affinity,identical to that of sertraline,% (viability) at 1 μM [2]: 1 μM: 29 ± 3%.
"CC(=O)N[C@@H]1CC[C@H](c2ccc(C(=O)O)cc2)c2ccccc21 (relative stereo) [VM055-cis, Cis-4-(4-acetamido-1,2,3,4-tetrahydronaphthalen-1-yl)benzoic acid]",176,,,,,
"c1ccc2c(c1)SCCC2c1ccc2ccccc2c1 (centres unmarked) [AC085, 4-(naphthalen-2-yl)thiochroman]",30,25 ± 1,,excellent affinity,identical to that of sertraline,
"CC(=O)N[C@@H]1CC[C@H](c2ccc(C(=O)OC(C)C)cc2)c2ccccc21 (relative stereo) [AC056, Cis-isopropyl 4-(4-acetamido-1,2,3,4-tetrahydronaphthalen-1-yl)benzoate]",28.5 ± 10,17 ± 3,,excellent affinity,identical to that of sertraline,
"CC(=O)NC1CCC(c2cccc(S[C@@H]3OC(COC(C)=O)[C@@H](OC(C)=O)C(OC(C)=O)C3OC(C)=O)c2)c2ccccc21 (stereo in doubt) [AC268-cis, Cis-(2S,3R,4S,5R,6R)-2-((3-((4S)-4-acetamido-1,2,3,4-tetrahydronaphthalen-1-yl)phenyl)thio)-6-(acetoxymethyl)tetrahydro-2H-pyran-3,4,5-triyl triacetate]",170 ± 31,,,,,
"c1ccc2c(c1)OCCC2c1ccc2ccccc2c1 (centres unmarked) [AC069, 4-(naphthalen-2-yl)chroman]",24 ± 16,,33%,excellent affinity,identical to that of sertraline,% (viability) at 1 μM [2]: 0%
"CC(C)OC(=O)c1ccc(C2CCCc3ccccc32)cc1 (centres unmarked) [AC034, Isopropyl 4-(1,2,3,4-tetrahydronaphthalen-1-yl)benzoate]",29 ± 7,25 ± 9,,excellent affinity,identical to that of sertraline,
"CC(=O)NC1CCC(c2ccc3ccccc3c2)c2ccccc21 (centres unmarked) [AC070, N-(1,2,3,4-tetrahydro-[1,2′-binaphthalen]-4-yl) acetamide]",,,,,,"cytotoxicity compared with sertraline [4]: less cytotoxic than sertraline; activity on cell growth compared with sertraline ([4]; HCT116): slightly less active than sertraline; TGI50 1 ([4]; HCT116, CellTiter Glo, determination 1): 1.48 µM; TGI50 2 ([4]; HCT116, CellTiter Glo, determination 2): 1.44 µM; TGI50 3 ([4]; HCT116, CellTiter Glo, determination 3): 1.41 µM; TGI50 Mean ([4]; HCT116, CellTiter Glo, mean): 1.44 µM; TGI50 Median ([4]; HCT116, CellTiter Glo, median): 1.44 µM; GI50 ([4]; HCT-116, read-out: GI50 1): 0.909 µM; GI50 ([4]; HCT-116, read-out: GI50 2): 0.881 µM; GI50 ([4]; HCT-116, read-out: GI50 3): 0.878 µM; GI50 ([4]; HCT-116, read-out: GI50 Mean): 0.89 µM; GI50 ([4]; HCT-116, read-out: GI50 Median): 0.889 µM; CC50 ([4]; HCT-116, read-out: LC50 1): 2.34 µM; CC50 ([4]; HCT-116, read-out: LC50 2): 2.3 µM; CC50 ([4]; HCT-116, read-out: LC50 3): 2.2 µM; CC50 ([4]; HCT-116, read-out: LC50 Mean): 2.28 µM; CC50 ([4]; HCT-116, read-out: LC50 Median): 2.28 µM; GI50 ([4]; HCT-116, read-out: cell growth inhibition constant GI50): 0.889 µM; CC50 ([4]; HCT-116, read-out: lethal concentration LC50): 2.2 µM"
